In paper PMC3469657, “De novo GTP Biosynthesis Is Critical for Virulence of the Fungal Pathogen Cryptococcus neoformans” (PLoS Pathogens, 2012):

Tests used:
[1] = biological target: T1, CgImd1 (IMP dehydrogenase, CgIMPDH, VGIV) (Cryptococcus bacillisporus, UniProt E3P6S3); experiment: NADH production at […] nm, tight-binding inhibition fits; assay type: biochemical
T1 construct: gene IMD1; recombinant CgImd1 expressed in E. coli

[2] = biological target: T2, CnImd1 (IMP dehydrogenase, CnIMPDH, VNI) (Cryptococcus neoformans, UniProt J9VET5); experiment: crystal structure with IMP and MPA; steady-state kinetics (tight-binding uncompetitive vs NAD+); assay type: biochemical
T2 construct: gene CNAG_00441; recombinant, 544 residues; 395 residues modelled per monomer
T2 sequence (J9VET5 entry or part of it): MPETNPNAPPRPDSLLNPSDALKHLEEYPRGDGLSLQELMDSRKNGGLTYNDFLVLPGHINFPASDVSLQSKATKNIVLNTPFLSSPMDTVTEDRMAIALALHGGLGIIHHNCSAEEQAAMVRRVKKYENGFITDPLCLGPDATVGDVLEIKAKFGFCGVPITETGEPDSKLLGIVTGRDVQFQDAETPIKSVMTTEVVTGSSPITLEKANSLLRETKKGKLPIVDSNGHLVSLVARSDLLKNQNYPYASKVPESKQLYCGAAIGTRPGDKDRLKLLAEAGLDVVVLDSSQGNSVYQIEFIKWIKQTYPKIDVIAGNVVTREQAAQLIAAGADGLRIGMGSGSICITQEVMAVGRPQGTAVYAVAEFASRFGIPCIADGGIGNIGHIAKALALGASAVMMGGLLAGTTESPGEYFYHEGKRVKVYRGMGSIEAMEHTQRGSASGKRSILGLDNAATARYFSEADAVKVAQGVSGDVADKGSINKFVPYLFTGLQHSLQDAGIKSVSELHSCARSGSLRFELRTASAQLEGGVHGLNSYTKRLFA

[3] = test system: NC(=O)c1ccc[n+]([C@@H]2O[C@H](COP(=O)([O-])OP(=O)(O)OC[C@H]3O[C@@H](n4cnc5c(N)ncnc54)[C@H](O)[C@@H]3O)[C@@H](O)[C@H]2O)c1; experiment: purified protein; settings: IMP NAD+ site; substrate inhibition attributed to an E-XMP*•NAD+ complex; varied: cofactor

T1 sequence (E3P6S3 entry or part of it): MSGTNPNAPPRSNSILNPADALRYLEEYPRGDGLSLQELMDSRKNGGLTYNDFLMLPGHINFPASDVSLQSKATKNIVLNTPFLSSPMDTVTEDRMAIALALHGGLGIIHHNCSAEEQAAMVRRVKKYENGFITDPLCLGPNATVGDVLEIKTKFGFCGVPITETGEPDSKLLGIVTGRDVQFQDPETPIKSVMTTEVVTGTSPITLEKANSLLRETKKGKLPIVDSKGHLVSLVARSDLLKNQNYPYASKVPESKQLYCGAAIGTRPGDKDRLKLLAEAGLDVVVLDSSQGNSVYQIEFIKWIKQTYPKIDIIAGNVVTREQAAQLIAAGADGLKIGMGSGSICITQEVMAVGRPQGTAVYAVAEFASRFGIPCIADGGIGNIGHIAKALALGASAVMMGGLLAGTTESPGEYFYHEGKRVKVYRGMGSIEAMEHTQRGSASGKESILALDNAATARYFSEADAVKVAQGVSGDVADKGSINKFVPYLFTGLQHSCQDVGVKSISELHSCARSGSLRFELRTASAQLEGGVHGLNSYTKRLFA

COc1c(C)c2c(c(O)c1C/C=C(\C)CCC(=O)O)C(=O)OC2 [MPA, mycophenolic acid]
Ki [1]: 96 ± 5 nM
Ki [2]: 240 ± 18 nM

CgImd1 (IMP dehydrogenase, CgIMPDH, VGIV) (Cryptococcus bacillisporus)
Km [3]: 532 ± 65 µM

CnImd1 (IMP dehydrogenase, CnIMPDH, VNI) (Cryptococcus neoformans H99)
Km [3]: 634 ± 97 µM
